Results published in the supplement of paper PMC12819154, “High-throughput peptide-centric local stability assay extends protein–ligand identification to membrane proteins, tissues and bacteria” (Nature Structural & Molecular Biology, 2025).

Assays:
Test in all cases: pEC50 of peptide local stability change
UniProt P0A9P6 = details: peptide sequence: DVLGMAQTGSGK; direction: stabilized; replicate design: treated separately
Procedure: (§1)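 Dose-response HT-PELSA: desalted E. coli lysate treated separately per replicate with ATP (10 uM to 10 mM, 7 doses) for 30 min at 25 C, then a 4 min trypsin pulse at 22 C. Peptide ratio vs control was fitted with a 4-parameter log-logistic model (R2 > 0.9 in at least 3 replicates, CV of pEC50 <= 0.25); value is the mean pEC50 across replicates for stabilized or destabilized peptides.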

UniProt Q46927 = details: peptide sequence: AALIAYCR; direction: stabilized; replicate design: treated separately
Procedure: as §1

UniProt P25742 = details: peptide sequence: GCETKPITGLAGK; direction: stabilized; replicate design: treated separately
Procedure: as §1

UniProt P31548 = details: peptide sequence: LPGELSGGQR; direction: stabilized; replicate design: treated separately
Procedure: as §1

UniProt P33940 = details: peptide sequence: EYYPQAK; direction: stabilized; replicate design: treated separately
Procedure: as §1

UniProt P05707 = details: peptide sequence: VGSKHNSGYSAAK; direction: stabilized; replicate design: treated separately
Procedure: as §1

UniProt P0AAB8 = details: peptide sequence: EQCDLLVCGHHHSFINR; direction: stabilized; replicate design: treated separately
Procedure: as §1

UniProt P00363 = details: peptide sequence: LAGEQATER; direction: stabilized; replicate design: treated separately
Procedure: as §1

UniProt P43329 = details: peptide sequence: HTEILPLYAR; direction: stabilized; replicate design: treated separately
Procedure: as §1

UniProt P14081 = details: peptide sequence: LFITAATEGR; direction: stabilized; replicate design: treated separately
Procedure: as §1

UniProt P37344 = details: peptide sequence: ETLLNYR; direction: stabilized; replicate design: treated separately
Procedure: as §1

UniProt P15034 = details: peptide sequence: RAGEITAMAHTR; direction: stabilized; replicate design: treated separately
Procedure: as §1

UniProt P76014 = details: peptide sequence: VVEKLPAIADKDIGFILK; direction: stabilized; replicate design: treated separately
Procedure: as §1

UniProt P0A9B6 = details: peptide sequence: SLQSLPWR; direction: stabilized; replicate design: treated separately
Procedure: as §1

UniProt P21507 = details: peptide sequence: DVLGSAPTGTGK; direction: stabilized; replicate design: treated separately
Procedure: as §1

UniProt P36938 = details: peptide sequence: TLVSSAMIDR; direction: stabilized; replicate design: treated separately
Procedure: as §1

UniProt P11454 = details: peptide sequence: ALPLPELK; direction: stabilized; replicate design: treated separately
Procedure: as §1

UniProt P0A8F8 = details: peptide sequence: VLVTTLTKR; direction: stabilized; replicate design: treated separately
Procedure: as §1

UniProt P23538 = details: peptide sequence: QVKIEDVPQEQR; direction: stabilized; replicate design: treated separately
Procedure: as §1

UniProt P0DMC5 = details: peptide sequence: EVMNHITANYLPLVVR; direction: stabilized; replicate design: treated separately
Procedure: as §1

UniProt P03018 = details: peptide sequence: EVYHRPSR; direction: stabilized; replicate design: treated separately
Procedure: as §1

UniProt P77756 = details: peptide sequence: ALNHAVSLGMAK; direction: stabilized; replicate design: treated separately
Procedure: as §1

UniProt P0AEC3 = details: peptide sequence: DSHGGKPATGTGIGLAVSR; direction: stabilized; replicate design: treated separately
Procedure: as §1

UniProt P00452 = details: peptide sequence: VKAVELFSLMMQER; direction: stabilized; replicate design: treated separately
Procedure: as §1

UniProt P77499 = details: peptide sequence: GKDLLALSPEDR; direction: stabilized; replicate design: treated separately
Procedure: as §1

UniProt P07821 = details: peptide sequence: LVDSLSGGER; direction: stabilized; replicate design: treated separately
Procedure: as §1

UniProt P23830 = details: peptide sequence: EALGVLHFK; direction: stabilized; replicate design: treated separately
Procedure: as §1

UniProt Q06065 = details: peptide sequence: QPVCNAGEVK; direction: stabilized; replicate design: treated separately
Procedure: as §1

UniProt P25888 = details: peptide sequence: DLMASAQTGTGK; direction: stabilized; replicate design: treated separately
Procedure: as §1

UniProt P00582 = details: peptide sequence: LYLPDIK; direction: stabilized; replicate design: treated separately
Procedure: as §1

UniProt P27828 = details: peptide sequence: AHNPYGDGQACSR; direction: stabilized; replicate design: treated separately
Procedure: as §1

Chain of UniProt P43329 (P43329 whole entry): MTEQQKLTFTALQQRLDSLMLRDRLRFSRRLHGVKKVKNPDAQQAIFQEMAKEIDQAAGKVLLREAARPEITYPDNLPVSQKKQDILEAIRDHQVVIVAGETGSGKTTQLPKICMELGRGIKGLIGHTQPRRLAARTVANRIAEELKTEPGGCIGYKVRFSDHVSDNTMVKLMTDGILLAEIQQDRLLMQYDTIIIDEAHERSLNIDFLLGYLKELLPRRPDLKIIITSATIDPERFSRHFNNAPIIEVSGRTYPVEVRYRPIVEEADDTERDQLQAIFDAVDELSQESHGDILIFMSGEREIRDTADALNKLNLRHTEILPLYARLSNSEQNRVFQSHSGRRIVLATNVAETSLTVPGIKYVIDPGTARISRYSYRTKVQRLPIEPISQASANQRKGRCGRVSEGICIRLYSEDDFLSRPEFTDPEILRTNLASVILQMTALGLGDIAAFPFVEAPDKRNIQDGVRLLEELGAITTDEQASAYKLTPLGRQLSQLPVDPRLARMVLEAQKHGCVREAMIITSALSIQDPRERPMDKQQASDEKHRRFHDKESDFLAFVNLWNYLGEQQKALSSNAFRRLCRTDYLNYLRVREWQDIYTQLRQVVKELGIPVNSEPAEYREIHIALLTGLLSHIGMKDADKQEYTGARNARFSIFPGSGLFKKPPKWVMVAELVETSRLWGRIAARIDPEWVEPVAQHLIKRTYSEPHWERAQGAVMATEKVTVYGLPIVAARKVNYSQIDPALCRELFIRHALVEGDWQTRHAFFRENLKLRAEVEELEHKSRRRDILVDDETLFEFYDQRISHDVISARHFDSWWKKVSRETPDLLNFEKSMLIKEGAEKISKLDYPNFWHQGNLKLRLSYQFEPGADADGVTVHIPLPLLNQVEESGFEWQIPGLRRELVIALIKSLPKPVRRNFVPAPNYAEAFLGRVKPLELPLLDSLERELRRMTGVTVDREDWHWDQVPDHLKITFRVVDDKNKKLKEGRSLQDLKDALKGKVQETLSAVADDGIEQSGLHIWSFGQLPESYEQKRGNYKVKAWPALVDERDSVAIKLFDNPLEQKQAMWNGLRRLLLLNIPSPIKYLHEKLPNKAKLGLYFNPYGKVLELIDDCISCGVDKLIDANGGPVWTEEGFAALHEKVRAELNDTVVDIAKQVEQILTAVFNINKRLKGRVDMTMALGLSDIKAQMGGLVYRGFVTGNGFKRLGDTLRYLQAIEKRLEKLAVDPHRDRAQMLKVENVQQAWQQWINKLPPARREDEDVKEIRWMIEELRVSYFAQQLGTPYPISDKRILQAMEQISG
Chain of UniProt P00582 (P00582 whole entry): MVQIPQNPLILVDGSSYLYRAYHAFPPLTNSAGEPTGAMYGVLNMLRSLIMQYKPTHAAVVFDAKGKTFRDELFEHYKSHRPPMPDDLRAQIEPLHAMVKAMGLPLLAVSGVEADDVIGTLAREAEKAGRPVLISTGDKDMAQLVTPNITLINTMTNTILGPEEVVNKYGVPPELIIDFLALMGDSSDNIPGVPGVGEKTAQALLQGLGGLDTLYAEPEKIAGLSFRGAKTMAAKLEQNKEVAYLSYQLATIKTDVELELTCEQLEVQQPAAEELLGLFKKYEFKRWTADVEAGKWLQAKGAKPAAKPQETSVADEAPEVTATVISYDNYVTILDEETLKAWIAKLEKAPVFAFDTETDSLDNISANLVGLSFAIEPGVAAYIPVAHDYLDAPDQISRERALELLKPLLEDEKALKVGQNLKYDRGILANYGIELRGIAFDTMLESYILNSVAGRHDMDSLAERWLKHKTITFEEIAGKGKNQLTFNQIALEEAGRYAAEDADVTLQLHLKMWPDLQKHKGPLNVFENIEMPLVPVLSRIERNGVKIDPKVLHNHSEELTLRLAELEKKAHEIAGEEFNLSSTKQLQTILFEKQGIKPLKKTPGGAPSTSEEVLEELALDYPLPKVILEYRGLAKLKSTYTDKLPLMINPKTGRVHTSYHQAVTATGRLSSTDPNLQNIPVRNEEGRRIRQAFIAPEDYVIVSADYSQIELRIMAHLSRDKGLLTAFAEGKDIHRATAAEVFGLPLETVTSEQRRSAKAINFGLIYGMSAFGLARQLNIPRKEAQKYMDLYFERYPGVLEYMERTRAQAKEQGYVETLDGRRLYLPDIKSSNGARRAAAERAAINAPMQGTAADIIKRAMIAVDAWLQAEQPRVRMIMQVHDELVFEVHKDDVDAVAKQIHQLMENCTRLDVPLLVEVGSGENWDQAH
Chain of UniProt Q46927 (Q46927 whole entry): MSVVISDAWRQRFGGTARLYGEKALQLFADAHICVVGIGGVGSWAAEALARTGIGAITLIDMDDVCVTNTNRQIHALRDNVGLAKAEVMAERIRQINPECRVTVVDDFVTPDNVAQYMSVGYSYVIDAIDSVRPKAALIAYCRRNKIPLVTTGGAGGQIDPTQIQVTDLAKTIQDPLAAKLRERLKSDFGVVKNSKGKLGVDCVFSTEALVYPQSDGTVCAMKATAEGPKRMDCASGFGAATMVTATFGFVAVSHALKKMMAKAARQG
Chain of UniProt Q06065 (Q06065 whole entry): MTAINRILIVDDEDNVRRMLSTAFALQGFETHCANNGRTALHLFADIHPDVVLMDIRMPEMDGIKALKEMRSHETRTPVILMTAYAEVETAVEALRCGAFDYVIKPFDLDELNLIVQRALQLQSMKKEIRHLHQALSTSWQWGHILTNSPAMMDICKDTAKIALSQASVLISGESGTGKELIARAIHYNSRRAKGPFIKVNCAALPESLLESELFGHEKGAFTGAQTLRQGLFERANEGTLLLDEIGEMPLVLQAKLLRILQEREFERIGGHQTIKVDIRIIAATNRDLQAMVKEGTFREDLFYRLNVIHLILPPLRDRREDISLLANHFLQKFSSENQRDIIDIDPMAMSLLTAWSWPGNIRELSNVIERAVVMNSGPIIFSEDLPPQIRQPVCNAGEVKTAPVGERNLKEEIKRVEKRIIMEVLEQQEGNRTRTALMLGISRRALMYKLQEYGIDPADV
Chain of UniProt P07821 (P07821 whole entry): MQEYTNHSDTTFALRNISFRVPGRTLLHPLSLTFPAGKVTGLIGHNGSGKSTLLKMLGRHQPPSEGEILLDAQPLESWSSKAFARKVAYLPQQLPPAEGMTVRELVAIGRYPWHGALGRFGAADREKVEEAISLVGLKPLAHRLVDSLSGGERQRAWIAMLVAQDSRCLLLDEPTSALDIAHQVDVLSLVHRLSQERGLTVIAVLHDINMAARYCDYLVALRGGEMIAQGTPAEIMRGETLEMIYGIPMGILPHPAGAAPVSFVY
Chain of UniProt P77756 (P77756 whole entry): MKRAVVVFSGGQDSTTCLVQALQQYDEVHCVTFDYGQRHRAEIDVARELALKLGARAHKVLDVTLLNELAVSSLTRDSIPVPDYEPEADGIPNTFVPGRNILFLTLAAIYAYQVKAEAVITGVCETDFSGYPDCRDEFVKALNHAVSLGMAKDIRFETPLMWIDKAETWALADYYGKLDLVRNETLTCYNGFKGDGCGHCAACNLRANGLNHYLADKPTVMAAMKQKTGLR
Chain of UniProt P77499 (P77499 whole entry): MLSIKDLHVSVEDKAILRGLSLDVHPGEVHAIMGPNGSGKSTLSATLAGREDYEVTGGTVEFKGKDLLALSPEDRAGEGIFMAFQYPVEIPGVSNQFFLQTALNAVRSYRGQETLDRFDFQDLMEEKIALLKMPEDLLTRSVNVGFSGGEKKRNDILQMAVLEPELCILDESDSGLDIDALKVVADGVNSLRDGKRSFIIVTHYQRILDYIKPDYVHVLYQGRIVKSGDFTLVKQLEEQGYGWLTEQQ
Chain of UniProt P0DMC5 (P0DMC5 whole entry): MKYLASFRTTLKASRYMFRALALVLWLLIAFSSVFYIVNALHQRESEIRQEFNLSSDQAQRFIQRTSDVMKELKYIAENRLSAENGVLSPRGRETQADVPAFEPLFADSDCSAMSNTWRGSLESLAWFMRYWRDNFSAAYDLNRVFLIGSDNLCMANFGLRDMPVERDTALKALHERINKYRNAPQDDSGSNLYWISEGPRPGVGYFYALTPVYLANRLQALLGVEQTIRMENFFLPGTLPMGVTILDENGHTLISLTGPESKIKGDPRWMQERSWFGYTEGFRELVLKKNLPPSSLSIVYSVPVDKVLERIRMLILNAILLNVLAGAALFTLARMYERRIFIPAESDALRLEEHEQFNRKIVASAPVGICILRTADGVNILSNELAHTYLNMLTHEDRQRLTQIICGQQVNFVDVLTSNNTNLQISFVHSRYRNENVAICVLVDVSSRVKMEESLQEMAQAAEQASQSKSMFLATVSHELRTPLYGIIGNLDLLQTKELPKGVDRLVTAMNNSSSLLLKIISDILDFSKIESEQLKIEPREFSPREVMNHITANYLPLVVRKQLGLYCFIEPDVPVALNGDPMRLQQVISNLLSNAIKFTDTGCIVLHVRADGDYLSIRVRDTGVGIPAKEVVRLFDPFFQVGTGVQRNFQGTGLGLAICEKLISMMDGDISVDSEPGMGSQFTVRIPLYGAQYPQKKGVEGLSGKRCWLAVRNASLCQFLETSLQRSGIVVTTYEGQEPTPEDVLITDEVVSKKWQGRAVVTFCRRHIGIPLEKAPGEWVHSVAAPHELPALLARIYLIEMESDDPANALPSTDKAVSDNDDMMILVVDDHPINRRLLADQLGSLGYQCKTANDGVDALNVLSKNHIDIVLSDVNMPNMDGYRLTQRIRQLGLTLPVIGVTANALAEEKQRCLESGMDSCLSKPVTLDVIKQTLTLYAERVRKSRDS
Chain of UniProt P76014 (P76014 whole entry): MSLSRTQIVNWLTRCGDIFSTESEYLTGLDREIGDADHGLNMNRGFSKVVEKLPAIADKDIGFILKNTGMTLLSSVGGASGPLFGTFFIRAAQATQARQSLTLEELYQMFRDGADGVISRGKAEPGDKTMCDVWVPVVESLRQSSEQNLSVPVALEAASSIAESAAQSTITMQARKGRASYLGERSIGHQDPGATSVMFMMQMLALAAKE

Nc1ncnc2c1ncn2[C@@H]1O[C@H](COP(=O)(O)OP(=O)(O)OP(=O)(O)O)[C@@H](O)[C@H]1O [adenosine 5'-triphosphate]
Details | pEC50 of peptide local stability change
UniProt P0A8F8 | 2.14
UniProt P0A9B6 | 2.62
UniProt P0A9P6 | 3.67
UniProt P0AAB8 | 3.82
UniProt P0AEC3 | 2.99
UniProt P0DMC5 | 2.58
UniProt P00363 | 2.48
UniProt P00452 | 3.75
UniProt P00582 | 3.5
UniProt P03018 | 3.07
UniProt P05707 | 3.86
UniProt P07821 | 3.1
UniProt P11454 | 3.15
UniProt P14081 | 3.42
UniProt P15034 | 3.83
UniProt P21507 | 4.35
UniProt P23538 | 4.42
UniProt P23830 | 2.53
UniProt P25742 | 2.67
UniProt P25888 | 3.76
UniProt P27828 | 2.12
UniProt P31548 | 3.79
UniProt P33940 | 3.09
UniProt P36938 | 2.48
UniProt P37344 | 3.2
UniProt P43329 | 3.11
UniProt P76014 | 3.61
UniProt P77499 | 3.9
UniProt P77756 | 3.62
UniProt Q06065 | 3.47
UniProt Q46927 | 3.69
